Results reported in patent US7585873B2, “1-(aminoalkyl)-3-sulfonylazaindoles as 5-hydroxytryptamine-6 ligands” (Wyeth, priority 2002, dated 2009).

Legend:
[1] = molecular target: T1, human cloned 5-HT6 receptors (Homo sapiens, UniProt P50406); experiment: 5-HT6 binding affinity, [3H]-LSD displacement on membranes of Hela cells expressing human cloned 5-HT6 receptors; conditions: [3H]-LSD 3.0 nM, Hela cell membranes, 120 min at room temperature; read-out: 5-HT6 Binding Ki
T1 construct: expressed in transfected cells; host or cells: Hela cells
T1 sequence (P50406 whole entry): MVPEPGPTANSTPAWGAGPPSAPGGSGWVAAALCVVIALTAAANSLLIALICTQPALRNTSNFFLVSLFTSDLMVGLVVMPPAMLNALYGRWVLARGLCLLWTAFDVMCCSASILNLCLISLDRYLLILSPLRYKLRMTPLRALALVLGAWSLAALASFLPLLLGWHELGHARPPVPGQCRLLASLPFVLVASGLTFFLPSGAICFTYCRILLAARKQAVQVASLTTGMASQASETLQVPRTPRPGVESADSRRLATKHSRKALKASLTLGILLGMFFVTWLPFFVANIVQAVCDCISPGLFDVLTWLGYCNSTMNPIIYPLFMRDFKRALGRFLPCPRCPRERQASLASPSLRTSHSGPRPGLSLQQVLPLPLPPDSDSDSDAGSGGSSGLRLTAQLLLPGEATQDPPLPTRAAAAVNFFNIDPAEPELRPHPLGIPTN

- Ki [1]: 214 nM
- melting point: 244 to 246 °C
SMILES: CN(C)CCn1cc(S(=O)(=O)c2ccccc2)c2nc(Cl)ccc21 [Example 81]
